{"source": "patent US20240076347A1", "about": "“METHODS FOR PREVENTING FUNGAL INFECTIONS” (Cidara Therapeutics, Inc., priority 2016, published 2024)", "key": {"C. albicans biofilms": {"system": "C. albicans biofilms", "assay": "Time lapse microscopy of biofilm formation", "assay_type": "cell-based, Candida albicans", "details": "up to 16 h", "from_the_text": "The effective CD101 concentration obtained from the above experiments was used to monitor its effect on biofilm formation in real time using TLM, which involves capturing real-time images of a single frame at specific time intervals, allowing temporal monitoring of the interactions occurring between the drug and Candida biofilms. Captured images were combined in a time sequence, resulting in an animation depicting the sequence of events that occurred with the passage of time. Briefly, the discs with C. albicans (adhered for 90 min as above) were placed in a 35-mm-diameter glass-bottom Petri dish (MiTek Corp., Ashland, MA). […] Phase contrast images for this interaction were captured immediately from 0 h and followed up to 16-17 h on a Leica DMI 6000 B inverted microscope connected to a Retiga EXi Aqua camera (Q-imaging Vancouver British Columbia). To determine the structural changes in the maturing biofilm, both acquisition and analysis of a series of horizontal (xy) optical sections of the biofilm was done using Metamorph Imaging software (Molecular Devices, Downington, PA). Disc incubated with media alone was used as control."}, "Candida auris": {"system": "Candida auris", "assay": "Murine model of disseminated candidiasis (immunosuppressed CD-1 mice), treatment", "assay_type": "in vivo", "details": "20 mg/kg IP", "protocol": "Female 6-8 week old CD-1 mice were immunosuppressed with cyclophosphamide (200 mg/kg) 3 days prior to infection and 150 mg/kg 1 day post-infection. On the day of infection, mice were inoculated with 3×10^7 C. auris blastospores via the lateral tail vein. Mice were randomized into 5 groups (n=5 for colony forming units (CFU) and n=10 for survival): CD101 20 mg/kg administered by intraperitoneal (IP) injection, fluconazole 20 mg/kg administered per os (PO), amphotericin B 0.3 mg/kg IP, and a vehicle control. Treatments were administered 2 hours post-infection (Day 1) and again on Day 4 of the study for a total of 2 doses. Mice were monitored daily and a survival curve was generated. CFU groups were sacrificed on Day 8 of the study. One kidney was removed from each mouse, homogenized, plated on potato dextrose agar (PDA), and incubated at 35° C. for 2 days to determine CFU. The remaining survival mice were monitored until the end of the study (Day 14)."}, "[1]": {"assay": "Tissue distribution in SD rats after IV dose", "assay_type": "in vivo", "details": "Sprague-Dawley, rat, 5 mg/kg IV", "protocol": "The in vitro activity of CD101 was evaluated against 153 A. fumigatus clinical isolates collected as part of the 2014 and 2015 JMI international SENTRY surveillance program. Susceptibility was determined by measuring the minimal effective concentration (MEC) values in accordance with CLSI broth microdilution guidelines (M38-A2). In vivo tissue distribution of CD101 in SD rats (N=3/time up to 5 d) after a 5 mg/kg IV CD101 dose. Plasma/tissue concentrations were measured by LC-MS/MS."}, "[2]": {"assay_type": "in vivo, Wistar rats", "protocol": "Endpoints. The rats were monitored at a frequency appropriate for their clinical condition. Rat weights were recorded at least once daily to ensure animals remained within ethical limits.\nReduction in weight and general loss of condition due to estradiol treatment are also typical in this rat model. Colonization with C. albicans was determined by quantitative culture of daily vaginal lavage samples. Rats were euthanized 9 days post infection and C. albicans determined by quantitative culture of vaginal tissue (including uterine horns)."}}, "note": "Like-named read-outs stand apart in the source and are kept apart here. Numbered stars: 1 amine (or outer) side, 2 acyl side, 3 side chain; on linkers, the order of the positions; unused ones are H or OH. Bridge positions count the residues as written; N and C are the ends. Square brackets hold non-standard residues; d marks the D form. Peptide text beside a SMILES is read from it. * marks the point of attachment. ξ: configuration not given here. Orn(4R-OH,5R-OCH2CH2NMe3+) = C[N+](C)(C)CCO[C@@H](N[*:3])[C@H](O)C[C@H](N[*:1])C(=O)[*:2]; pTerphenylCO(4''-OnC5H11) = CCCCCOc1ccc(-c2ccc(-c3ccc(C(=O)*)cc3)cc2)cc1; hTyr(3S-OH,4S-OH) = N[C@H](C(=O)O)[C@H](O)[C@@H](O)c1ccc(O)cc1; X1 = C[C@H]1CN([*:1])C(C(=O)[*:2])C1O; Hyp = O=C(O)[C@@H]1C[C@@H](O)CN1; ξT = CC(O)C(N)C(=O)O", "data": [{"molecule": "CCCCCOc1ccc(-c2ccc(-c3ccc(C(=O)N[C@H]4C[C@@H](O)[C@@H](OCC[N+](C)(C)C)NC(=O)C5C(O)[C@@H](C)CN5C(=O)[C@H]([C@@H](C)O)NC(=O)[C@H]([C@H](O)[C@@H](O)c5ccc(O)cc5)NC(=O)[C@@H]5C[C@@H](O)CN5C(=O)C(C(C)O)NC4=O)cc3)cc2)cc1", "note": "(stereo partly drawn) [CD101] ({pTerphenylCO(4''-OnC5H11)}-[Orn(4R-OH,5R-OCH2CH2NMe3+)][ξT][Hyp][hTyr(3S-OH,4S-OH)]T[X1]; lactam 1-C)", "values": [{"measurement": "biofilm formation in real time", "setting": "C. albicans biofilms; 0.25 μg/ml added to 3 h formed biofilms", "value": "remained stunted and failed to grow into mature biofilms"}, {"measurement": "biofilm formation in real time", "setting": "C. albicans biofilms; 0.25 μg/ml added to cells adhered 90 min", "value": "only adhered cells with stunted growth, which failed to grow into mature biofilms"}, {"measurement": "average reduction in kidney CFU", "setting": "Candida auris; 2 doses (Day 1, Day 4), Day 8, compared to fluconazole, amphotericin B and vehicle groups", "value": 3, "unit": "log"}, {"measurement": "percent survival at the end of the study", "setting": "Candida auris; 2 doses, Day 14", "value": 80, "unit": "%"}, {"measurement": "half-life", "setting": "[1]; plasma, read-out: t1/2 in plasma (converted)", "value": 39, "unit": "h"}, {"measurement": "half-life", "setting": "[1]; all tissues studied, read-out: t1/2 in tissues", "value": "40 to 77", "unit": "h"}, {"measurement": "Kp", "setting": "[1]; liver, kidney, lung, spleen, read-out: tissue/plasma exposure ratios", "value": "~4"}, {"measurement": "tolerability", "setting": "[2]; all treatment doses and durations", "value": "well tolerated with no adverse events observed"}, {"measurement": "weight loss", "setting": "[2]; ovariectomised, estradiol-treated rats", "value": "did not seem to be exacerbated"}]}]}
